From patent US5260479A, “Inhibitors of farnesyl protein transferase” (Merck & Co., Inc., priority 1991, dated 1993)

Target: T1, Farnesyl-protein transferase (FTase) (Bos taurus, UniProt P29702+P49355)
T1 construct: Farnesyl-protein transferase (FTase) from bovine brain was chromatographed; from tissue; host or cells: bovine brain
Assay: In Vitro Inhibition of Ras Farnesyl Transferase (inhibition of Ras-CVLS farnesylation)
Assay type: biochemical
Conditions: partially purified bovine brain FTase; Ras-CVLS 3.5 μM, 0.25 μM [3H]FPP
Procedure: Farnesyl-protein transferase (FTase) from bovine brain was chromatographed on DEAE-Sephacel (Pharmacia, 0-0.8M NaCl gradient elution), N-octyl agarose (Sigma, 0-0.6M NaCl gradient elution), and a mono Q HPLC column (Pharmacia, 0-0.3M NaCl gradient). Ras-CVLS at 3.5 μM, 0.25 μM [^3 H]FPP, and the indicated compounds were incubated with this partially purified enzyme preparation. The FTase inhibitory data presented below is a measurement of the ability of the test compound to inhibit Ras farnesylation in vitro.

Structure (SMILES) | IC50
C=C(C(=O)O)C(CCCCCCCCCCCCCC)C(=O)O (centres unmarked) [B] | 1.7 µM
CCCCCCCCCCCCCC/C(C(=O)O)=C(/C)C(=O)O [A] | 7.7 µM
